From US20260234188A1, “CHEMOKINE-BINDING PEPTIDES” (Oxford University Innovation Limited, priority 2022, published 2026)
Entries after “also recorded” stand apart in the source; their conditions may differ.

tested on: panel of 24 biotinylated chemokines; assay: Phage-display screen of HD2 NNK saturation mutagenesis library; format: binding, human; conditions: HD2 saturation mutants; chemokines on streptavidin beads; UniProt entry names
Source text: (§1) FIG. 7. Exemplar results from phage display screens using saturation mutagenesis. A phage-display library was constructed using the HD2 sequence, replacing each residue encoding codon with the degenerate sequence NNK. The 16 degenerate sequences (which also encoded the parental HD2 sequence) were pooled and cloned into display phage. […] Exemplar peptides were selected such that log 2 E for at least one chemokine was greater than 5, and log 2 E for binding to control (CO5, was less than zero). […] The fold enrichment of parental HD2 is also indicated.
as §1, with “A” for “FIG. 7. Exemplar results from phage display screens using saturation mutagenesis. A”
A molecular level understanding of binding mechanism is needed for development of peptides as therapeutics and is usually obtained from structural analyses. As HD2 binds many chemokines this becomes a challenging task, and we explored if we could elucidate this using phage display mutagenesis. The role of each residue in HD2 for binding was examined in phage-display. A library of HD2 mutations that had NNK substituted at each residue and performed phage-display selection against a panel of 24 biotinylated chemokines, in parallel, as described in Example 7. This strategy allowed us to evaluate the impact not only of Ala substitutions, but also conservative, hydrophilic and hydrophobic substitutions, and compare with binding of parental HD2 which is also included in the library. Ala substitution removes side-chains beyond the β-carbon and can be used to infer the role of side-chain functional groups without affecting conformational flexibility of the backbone. […] These residues are within the two motifs identified previously. Other notable residues identified were Y8 and P10. We next judged the impact of Ala mutation by calculating the change in log 2 E (Δlog 2 E) between the mutant and parental HD2. A positive value of Δlog 2 E indicates increased binding, and a negative value decreased binding compared to parental HD2. […] As may be seen, the log 2 E for the parental HD2 was ~0 in these analyses indicating lack of enrichment.
Oligonucleotide pools were amplified using primers: oligo_fwd: 5′-[…] and oligo_rev2: 5′-tcgtcaccctcggcgcctcctcoggatcctccacc. Oligonucleotide PCR products were cloned into plasmid prSTOP4Nsi using NEB Builder HiFi Assembly following instructions of the manufacturer. The vector pool was used to transform electrocompetent Invitrogen ElectroMAX™ DH5α-E™ cells. Plasmid DNA was harvested by MaxiPrep (GeneJet Plasmid Maxiprep Kit) and was transformed into SS320 phage display electrocompetent cells (Lucigen), following the manufacturer's protocol, resuspended in 950 μL recovery media for each electroporation, transferred to 50 mL Falcon tubes, 100 μL 1011 CFU/mL M13KO7 helper phage (NEB) added and shaken at 37° C., 220 RPM for 1 h. 1 mL recovery culture was added to 2YT medium containing +50 ug/mL carbenicillin and 25 ug/mL kanamycin, and grown overnight at 37C, 220 rpm. Phage was precipitated from the culture supernatant by adding 22.5 mL of supernatant to 4.5 mL 20% PEG 8000/2.5 M NaCl, incubating on ice for 30 min, and centrifuging at 10,000 RPM, 4° C. for 10 min, and resuspending phage in 1 ml of PBT, followed by centrifugation at 13000 RPM, 4° C., for 10 min. […]

Substance	Chemokines Bound log2E 1-5	Chemokines Bound log2E > 5
EEDDYEAYAPLTCYFT [HD2_E6]	CCL1, CCL11, CCL15, CCL17,; also recorded: CCL18, CCL19, CCL2, CCL22,; also recorded: CCL28, CCL3, CCL4, CCL5, CCL8,; also recorded: X3CL1, CXL10, CXL11, CXL14	SDF1, CXL13
EEDDYTAYAPLHCYFT [HD2_H12]	CCL15, CCL28, CCL4, CCL5	CCL22
EEDDYTAYAPVTCYFT [HD2_V11]	CCL1, CCL11, CCL15, CCL18,; also recorded: CCL2, CCL22, CCL28, CCL3,; also recorded: CCL4, CCL5, CCL8, CXL10,; also recorded: CXL11, CXL13	CCL17
EEDDYTAYAPTTCYFT [HD2_T11]	CCL11, CCL17, CCL18, CCL22,; also recorded: CCL4, CCL5, CCL8	CCL15
EEEDYTAYAPLTCYFT [HD2_E3]	CCL8, X3CL1; also recorded: CCL1, CCL11, CCL15, CCL17,; also recorded: CCL18, CCL22, CCL4, CCL5,	CCL3
EEDDYTAYAPYTCYFT [HD2_Y11]	CCL1, CCL11, CCL15, CCL17,; also recorded: CCL18, CCL19, CCL2, CCL20,; also recorded: CCL3, CCL4, CCL5, CCL8, X3CL1,; also recorded: CXL11, CXL13, CXL14	CCL22
EEDDYTAYAPLVCYFT [HD2_V12]	CCL18, CCL25, CCL28, CCL4,; also recorded: CCL8, X3CL1, CXL10, SDF1,; also recorded: CXL13, CXL14	CCL19
EEDDYSAYAPLTCYFT [HD2_S6]	CCL11, CCL15, CCL17, CCL18,; also recorded: CCL2, CCL22, CCL4, CCL5, CCL8,; also recorded: X3CL1, CXL10, SDF1, CXL13, IL8	CCL1, CCL3
EEDDYTAYAPLTCYFD [HD2_D16]	CCL1, CCL11, CCL17, CCL18,; also recorded: CCL2, CCL22, CCL3, CCL4, CCL5,; also recorded: CCL8, X3CL1, CXL10, CXL11,; also recorded: CXL13, CXL14	SDF1
EEDDYTAYADLTCYFT [HD2_D1C]		CXL11
EEDDYTEYAPLTCYFT [HD2_E7]	CCL1, CCL11, CCL15, CCL18,; also recorded: CCL2, CCL22, CCL28, CCL3,; also recorded: CCL4, CCL5, CCL8, X3CL1,; also recorded: CXL10, CXL14, IL8	SDF1, CXL13
EEDDYTAYAPFTCYFT [HD2_F11]	CCL18, CXL11, CXL13, CXL14	CCL20
EEDDYTAYAPQTCYFT [HD2_Q11]	CCL1, CCL11, CCL15, CCL18,; also recorded: CCL22, CCL4, CCL5, CCL8	CCL17
EEDDYTAYAPLICYFT [HD2_112]	CCL18, CCL25, CCL28, CCL4,; also recorded: X3CL1, CXL10, SDF1, CXL13,; also recorded: CXL14	CCL19
EEDDYTDYAPLTCYFT [HD2_D7]	CCL1, CCL11, CCL15, CCL17, and CCL18, CCL19, CCL2, CCL22, and CCL28, CCL3, CCL4, CCL5, CCL8, and X3CL1, CXL10, CXL11, CXL14, and IL8	SDF1, CXL13

same assay, conditions: best mutation at each residue

Substance	peak log 2 E
EEDDYTAYADLTCYFT [HD2_D1C]	highest peak log 2 E at that residue
EEDDYTAYAPLICYFT [HD2_112]	highest peak log 2 E at that residue

same assay, conditions: conservative residue substitutions (Dayhoff PAM250), mutant versus parental HD2

Substance	effect on Δlog 2 E
EEDDYTAYAPLTSYFT [HD901]	significant deleterious effect

same assay, conditions: over XC (CXC/CX3C) chemokines

Substance	mean log 2 E compared to parental HD2
EEDDYTWYAPLTCYFT [A7W]	significant improvement

same assay, conditions: over all chemokines

Substance	mean log 2 E compared to parental HD2
DEDDYTAYAPLTCYFT [E1D]	enhancement over the parental that was not statistically significant
EDDDYTAYAPLTCYFT [E2D]	enhancement over the parental that was not statistically significant
EEDDYTDYAPLTCYFT [HD2_D7]	significant improvement

tested on: panel of up to 42 human chemokines; assay: Phage-display next generation sequencing screen of overlapping hexadecapeptide libraries, chemokines displayed on streptavidin beads; format: binding; conditions: log2E greater than 5, chemokines named by first part of UniProt Entry Name;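 further: chemokine listed when log2 fold enrichment exceeds 5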
Outline: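 Phage-display libraries of 55662 overlapping hexadecapeptides from tick and viral chemokine-binding proteins, human chemokines and chemokine receptors screened against up to 42 human chemokines, with hits found by next-generation sequencing. Peptides mapped to parent-protein position with log2 fold enrichment; regions of interest where cumulative residue log2 E exceeds the 95% upper CI of the protein median.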

Substance	Chemokines Bound
CR25244 (VLLSWKVLLTMVWGAA)	CCL11, CCL17,; also recorded: CCL18, CCL19,; also recorded: CCL2, CCL20,; also recorded: CCL22, CCL25,; also recorded: CCL28, X3CL1,; also recorded: CXL10, CXL11,; also recorded: SDF1, CXL13,; also recorded: CXL14, IL8
CR27433 (YLLDFILALVGNTLAL)	CCL18, CCL19,; also recorded: CCL20, CCL25,; also recorded: CCL28, CXL10,; also recorded: CXL11
CR5519 (FLGLMCSVWTHLGMAL)	CCL1, CCL18,; also recorded: CCL2, CCL22,
CR3800 (DYSIILMFLSDFSFIF)	CCL1, CCL11, and CCL15, CCL18, and CCL28, X3CL1, and CXL10, CXL11, and SDF1, CXL13, and IL8
CR26762 (WVASILSSILDTIFHK)	CCL17, CCL18,; also recorded: X3CL1, CXL10,; also recorded: CXL11, IL8
CR24612 (VFLSIFYSVIFAIGLV)	CCL17, CCL18,; also recorded: CCL22, CCL25,; also recorded: CCL28, X3CL1,; also recorded: CXL10, CXL11,; also recorded: SDF1, CXL13,; also recorded: CXL14
CR26831 (WVLVIGSLVARWLLGI)	CCL17, CCL2,; also recorded: X3CL1, CXL10
CR26041 (VTSVITWLVAVFASVP)	CCL2, X3CL1,; also recorded: CXL11, IL8
CR26327: chemokine binding peptide of Table 5A used in FIG. 5 combinations (VWVASILSSILDTIFH)	CCL2, CXL11, and IL8
CR26592 (WKLLAEIYEYLFFFSF)	CCL19, CCL20,; also recorded: CCL22, CXL14
CR27049 (YDLFIGIKIVYAFLWG)	CCL1, CCL18, and CCL22, CCL25, and IL8

same assay, conditions: log2E greater than 5, chemokines named by first part of UniProt Entry Name, peptides binding complement C5a (control) excluded

Substance	Chemokines Bound
EB1728 (HEDGKKVGLCLSTEYT)	CXL10, SDF1,; also recorded: CXL14
CR5519 (FLGLMCSVWTHLGMAL)	CCL28, X3CL1,; also recorded: CXL10, CXL11,; also recorded: SDF1, CXL13,; also recorded: CXL14, IL8
CR6515 (FWTPYNIVLFLETLVE)	CCL20, CCL22, and CXL10, CXL13, and IL8
CR6212 (FSTFSGMLVYILLLPV)	CXL11, CXL13, and IL8
EB3094 (SGNCTCYHEDGKKVGL)	CXL10, CXL11, and SDF1
VP10866 (VNASIAWFFDFGACRM)	X3CL1, CXL10,; also recorded: CXL11
CR6604 (FYVAMFASLCFITEIA)	CXL10, CXL11, and SDF1, CXL13, and IL8
CR5776 (FMIFCYTFIVKTLVQA)	CCL1, CCL17,; also recorded: CCL19, CCL20,; also recorded: SDF1, CXL13
CR9218 (IITSVLAWVTAILATL)	CCL17, CCL18, and CXL11, CXL14, and IL8
CR5738 (FLWGIFPTVIFSYFYV)	CCL18, CCL22, and CCL8, X3CL1, and CXL10, CXL11, and IL8
VP1485 (DLAGLDSLTSPVYVMA)	CCL20, X3CL1, and SDF1

same assay, conditions: log2E greater than 5, chemokines named by first part of UniProt entry name, C5a (control) binders excluded

Substance	Chemokines Bound
CR14974 (LVTLPFWGISVAWHWV)	CCL18, CCL25,; also recorded: CCL28
CR22363 (SYRSTYIILLLTWFAG)	CCL18, X3CL1,; also recorded: CXL10
CR20481 (SGIFFIILLTIDRYLA)	CCL1, CCL19,; also recorded: CCL20, CCL22,; also recorded: CCL25, CCL28,; also recorded: X3CL1, CXL10,; also recorded: CXL11, SDF1
CK3115 (LLESYFETNSECSKPG)	CCL19, CCL22,; also recorded: X3CL1, CXL14
CR2278 (AVWGLSLLFALPDFIF)	CCL18, CCL2,; also recorded: CCL22, CCL28,; also recorded: CXL10, CXL11,; also recorded: SDF1, CXL13,; also recorded: CXL14, IL8
CK4643 (RITNIQCPKEAVIFKT)	CCL1, CCL19,; also recorded: CCL20
